Experimental data taken from ChEMBL document CHEMBL4304788, “Treatment of Cancer and Alzheimer's Disease by PROTAC Degradation of EGFR” (ACS Med Chem Lett, 2019).
pEC50: −log10 of the molar value.

target: Protein cereblon/Epidermal growth factor receptor (Homo sapiens, UniProt P00533+Q96SW2, L858R/T790M); experiment: Protac activity at native cereblon/EGFR T790M/L858R mutant (unknown origin) transfected in mouse Baf3 cells assessed as reduction in cell proliferation by MTS assay; type: cell-based
Sequence (P00533 25-1210 T790M/L858R limits assumed, stated change not applied): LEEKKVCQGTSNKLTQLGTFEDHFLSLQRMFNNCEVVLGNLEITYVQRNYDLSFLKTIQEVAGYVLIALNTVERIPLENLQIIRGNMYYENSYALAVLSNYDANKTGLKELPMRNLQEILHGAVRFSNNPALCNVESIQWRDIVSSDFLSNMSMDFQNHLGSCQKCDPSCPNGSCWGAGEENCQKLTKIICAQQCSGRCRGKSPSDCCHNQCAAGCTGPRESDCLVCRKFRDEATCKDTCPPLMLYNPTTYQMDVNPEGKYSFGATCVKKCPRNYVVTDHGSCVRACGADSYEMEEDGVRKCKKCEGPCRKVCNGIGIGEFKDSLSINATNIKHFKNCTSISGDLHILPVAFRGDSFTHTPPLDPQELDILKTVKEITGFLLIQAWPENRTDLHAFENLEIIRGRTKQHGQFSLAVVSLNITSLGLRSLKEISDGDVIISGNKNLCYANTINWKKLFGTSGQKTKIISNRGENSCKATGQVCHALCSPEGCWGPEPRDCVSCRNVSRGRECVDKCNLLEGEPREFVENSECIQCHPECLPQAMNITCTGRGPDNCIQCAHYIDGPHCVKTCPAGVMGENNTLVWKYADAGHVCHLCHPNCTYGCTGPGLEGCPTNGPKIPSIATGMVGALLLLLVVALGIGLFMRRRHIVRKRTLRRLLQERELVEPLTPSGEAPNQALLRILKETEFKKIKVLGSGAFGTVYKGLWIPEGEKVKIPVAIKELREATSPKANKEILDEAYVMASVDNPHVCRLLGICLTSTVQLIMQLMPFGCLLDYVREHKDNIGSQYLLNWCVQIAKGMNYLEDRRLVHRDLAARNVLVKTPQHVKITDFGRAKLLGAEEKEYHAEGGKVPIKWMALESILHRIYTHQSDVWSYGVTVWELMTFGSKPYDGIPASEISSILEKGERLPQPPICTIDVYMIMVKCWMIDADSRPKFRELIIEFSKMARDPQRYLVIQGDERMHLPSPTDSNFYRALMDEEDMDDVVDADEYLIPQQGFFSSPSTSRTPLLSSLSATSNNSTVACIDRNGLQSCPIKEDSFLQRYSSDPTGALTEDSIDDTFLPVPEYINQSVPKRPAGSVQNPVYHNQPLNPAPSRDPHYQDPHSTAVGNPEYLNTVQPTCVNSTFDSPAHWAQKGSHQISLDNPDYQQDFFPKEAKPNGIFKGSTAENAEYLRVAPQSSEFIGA
Sequence (Q96SW2 whole entry, stated change not applied): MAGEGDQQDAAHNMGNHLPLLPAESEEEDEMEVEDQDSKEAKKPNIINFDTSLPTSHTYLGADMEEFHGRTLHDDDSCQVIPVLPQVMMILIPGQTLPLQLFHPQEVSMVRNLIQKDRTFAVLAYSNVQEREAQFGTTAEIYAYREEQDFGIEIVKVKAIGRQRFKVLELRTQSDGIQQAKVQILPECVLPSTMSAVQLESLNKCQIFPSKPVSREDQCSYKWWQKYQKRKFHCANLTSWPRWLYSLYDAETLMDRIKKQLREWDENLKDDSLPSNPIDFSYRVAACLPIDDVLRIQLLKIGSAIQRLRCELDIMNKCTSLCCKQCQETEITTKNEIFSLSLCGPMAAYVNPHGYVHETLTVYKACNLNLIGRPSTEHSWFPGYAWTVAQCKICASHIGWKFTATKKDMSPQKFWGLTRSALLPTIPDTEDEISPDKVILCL

SMILES | pEC50
O=C1CCC(N2C(=O)c3cccc(NCCOCCOCCOCCOCCN4CCN(c5ccc(-c6ccc7c(c6)C(=O)N(C(C(=O)Nc6nccs6)c6ccccc6)C7)cc5)CC4)c3C2=O)C(=O)N1 (centres undefined) | > 6.30
O=C1CCC(N2C(=O)c3cccc(NCCOCCOCCOCCN4CCN(c5ccc(-c6ccc7c(c6)C(=O)N(C(C(=O)Nc6nccs6)c6ccccc6)C7)cn5)CC4)c3C2=O)C(=O)N1 (centres undefined) | > 6.30
O=C1CCC(N2C(=O)c3cccc(NCCOCCOCCOCCN4CCN(c5ccc(-c6ccc7c(c6)C(=O)N(C(C(=O)Nc6nccs6)c6ccccc6)C7)cc5)CC4)c3C2=O)C(=O)N1 (centres undefined) | > 6.30
O=C1CCC(N2C(=O)c3cccc(NCCOCCOCCOCCC(=O)N4CCN(c5ccc(-c6ccc7c(c6)C(=O)N(C(C(=O)Nc6nccs6)c6ccccc6)C7)cc5)CC4)c3C2=O)C(=O)N1 (centres undefined) | > 6.30
